Reference: the supplement of paper PMC12463676, “Small-molecule dissolution of stress granules by redox modulation benefits ALS models” (Nature Chemical Biology, 2025)

Assays:
[1] = compound: NC(=O)CCCCC1CCSS1 [lipoamide]; assay: thermal stability z-score vs DMSO; higher = more thermally stabilized by treatment; settings: HeLa, lipoamide concentration 100 µM
Experimental: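 Cellular thermal proteome profiling in HeLa cells. Cells were treated with 100 µM lipoamide for 1 h, with or without 1 mM arsenate for a further 1 h, then heated to ten temperatures (37-66.3 °C), and soluble protein was quantified by TMT mass spectrometry relative to 0.1% DMSO controls. The thermal stability score (sum of log2 fold changes minus the abundance score) was transformed to a z-score; mean of n = 3 experiments.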

[2] = compound: O=[As]([O-])(O)O.[K+] [potassium arsenate]; assay: as above; settings: HeLa; arsenate concentration 1 mM
Experimental: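 Cellular thermal proteome profiling in HeLa cells treated with 1 mM arsenate for 1 h (DMSO pretreatment), heated to ten temperatures (37-66.3 °C). Soluble protein was quantified by TMT mass spectrometry relative to DMSO controls; the thermal stability score was transformed to a z-score; mean of n = 3 experiments.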

[3] = arsenate co-treatment: 1 mM arsenate 1 h
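Note: each temperature applied for 3 min, abundance score taken as mean log2 fold change at the two lowest temperatures, z-score obtained by mean subtraction and division by SD.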

UniProt Q9HD67, sequence (Q9HD67 whole entry): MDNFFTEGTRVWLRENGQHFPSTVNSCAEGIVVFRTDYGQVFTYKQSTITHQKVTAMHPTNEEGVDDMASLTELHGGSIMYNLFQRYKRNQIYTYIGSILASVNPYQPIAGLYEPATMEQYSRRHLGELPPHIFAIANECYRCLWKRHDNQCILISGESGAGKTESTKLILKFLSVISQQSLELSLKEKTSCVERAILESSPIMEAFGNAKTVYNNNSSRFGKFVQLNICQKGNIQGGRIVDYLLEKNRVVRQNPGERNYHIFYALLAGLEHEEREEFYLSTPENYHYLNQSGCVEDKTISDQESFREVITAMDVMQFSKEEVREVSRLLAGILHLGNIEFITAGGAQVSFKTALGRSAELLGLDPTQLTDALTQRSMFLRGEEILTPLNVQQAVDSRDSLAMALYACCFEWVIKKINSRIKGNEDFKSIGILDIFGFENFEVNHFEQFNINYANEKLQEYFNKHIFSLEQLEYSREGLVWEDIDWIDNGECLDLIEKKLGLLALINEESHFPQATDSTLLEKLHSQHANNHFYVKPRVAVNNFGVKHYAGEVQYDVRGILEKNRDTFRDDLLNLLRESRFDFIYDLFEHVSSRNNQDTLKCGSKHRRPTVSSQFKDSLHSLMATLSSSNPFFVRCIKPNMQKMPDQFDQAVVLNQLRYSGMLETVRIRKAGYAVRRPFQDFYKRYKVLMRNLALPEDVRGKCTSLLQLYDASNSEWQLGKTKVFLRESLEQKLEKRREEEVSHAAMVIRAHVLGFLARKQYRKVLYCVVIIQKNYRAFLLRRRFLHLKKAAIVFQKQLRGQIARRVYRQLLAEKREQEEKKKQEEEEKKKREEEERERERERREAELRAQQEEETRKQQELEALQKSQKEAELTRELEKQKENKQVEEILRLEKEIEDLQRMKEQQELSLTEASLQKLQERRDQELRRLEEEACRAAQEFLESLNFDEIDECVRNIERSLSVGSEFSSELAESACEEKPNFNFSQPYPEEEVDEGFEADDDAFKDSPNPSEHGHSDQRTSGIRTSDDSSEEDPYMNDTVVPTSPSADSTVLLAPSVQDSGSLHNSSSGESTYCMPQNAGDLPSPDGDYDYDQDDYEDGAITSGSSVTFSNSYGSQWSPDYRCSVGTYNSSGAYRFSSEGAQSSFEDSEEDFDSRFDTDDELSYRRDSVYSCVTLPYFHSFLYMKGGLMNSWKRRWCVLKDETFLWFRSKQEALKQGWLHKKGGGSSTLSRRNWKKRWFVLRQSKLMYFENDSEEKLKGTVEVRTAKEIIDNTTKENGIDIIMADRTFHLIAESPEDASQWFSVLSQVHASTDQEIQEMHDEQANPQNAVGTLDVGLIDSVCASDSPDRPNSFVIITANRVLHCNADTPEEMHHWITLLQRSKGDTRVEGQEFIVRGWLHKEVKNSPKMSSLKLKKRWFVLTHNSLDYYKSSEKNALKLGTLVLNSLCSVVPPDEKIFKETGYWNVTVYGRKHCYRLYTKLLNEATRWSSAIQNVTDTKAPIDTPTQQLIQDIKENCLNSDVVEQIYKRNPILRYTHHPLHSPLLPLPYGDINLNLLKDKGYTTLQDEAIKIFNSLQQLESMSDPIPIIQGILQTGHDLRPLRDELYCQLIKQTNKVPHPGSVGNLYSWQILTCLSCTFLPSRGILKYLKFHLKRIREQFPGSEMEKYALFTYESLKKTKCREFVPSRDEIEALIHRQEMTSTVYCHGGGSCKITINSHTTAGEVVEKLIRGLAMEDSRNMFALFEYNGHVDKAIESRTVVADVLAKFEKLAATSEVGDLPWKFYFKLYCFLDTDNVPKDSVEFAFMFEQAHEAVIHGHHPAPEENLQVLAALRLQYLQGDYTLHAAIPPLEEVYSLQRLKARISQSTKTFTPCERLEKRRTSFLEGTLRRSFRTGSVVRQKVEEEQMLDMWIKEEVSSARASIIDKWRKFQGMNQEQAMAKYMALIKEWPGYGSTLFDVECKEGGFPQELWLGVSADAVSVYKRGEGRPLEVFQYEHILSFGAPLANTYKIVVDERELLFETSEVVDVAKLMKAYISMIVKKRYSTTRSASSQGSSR
UniProt O75330, sequence (O75330 whole entry): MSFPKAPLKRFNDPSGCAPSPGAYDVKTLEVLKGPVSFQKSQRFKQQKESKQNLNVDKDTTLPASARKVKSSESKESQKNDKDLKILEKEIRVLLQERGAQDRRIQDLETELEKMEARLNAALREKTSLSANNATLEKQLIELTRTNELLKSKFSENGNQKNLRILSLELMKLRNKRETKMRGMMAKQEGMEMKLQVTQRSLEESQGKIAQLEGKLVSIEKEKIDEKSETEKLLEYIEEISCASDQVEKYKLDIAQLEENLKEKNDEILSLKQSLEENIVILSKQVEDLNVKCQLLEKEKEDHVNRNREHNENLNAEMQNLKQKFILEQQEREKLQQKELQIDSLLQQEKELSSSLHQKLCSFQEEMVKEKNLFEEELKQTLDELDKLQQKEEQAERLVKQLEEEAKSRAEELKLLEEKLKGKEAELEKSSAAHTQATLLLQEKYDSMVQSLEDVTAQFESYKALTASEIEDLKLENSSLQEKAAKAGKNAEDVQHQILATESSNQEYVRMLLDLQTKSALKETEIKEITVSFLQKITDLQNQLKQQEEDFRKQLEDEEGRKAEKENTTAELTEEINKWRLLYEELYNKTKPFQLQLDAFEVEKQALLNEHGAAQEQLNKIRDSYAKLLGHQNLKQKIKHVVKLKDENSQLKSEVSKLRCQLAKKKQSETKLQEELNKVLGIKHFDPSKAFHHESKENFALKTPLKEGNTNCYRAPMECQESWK
UniProt Q16630, sequence (Q16630 whole entry): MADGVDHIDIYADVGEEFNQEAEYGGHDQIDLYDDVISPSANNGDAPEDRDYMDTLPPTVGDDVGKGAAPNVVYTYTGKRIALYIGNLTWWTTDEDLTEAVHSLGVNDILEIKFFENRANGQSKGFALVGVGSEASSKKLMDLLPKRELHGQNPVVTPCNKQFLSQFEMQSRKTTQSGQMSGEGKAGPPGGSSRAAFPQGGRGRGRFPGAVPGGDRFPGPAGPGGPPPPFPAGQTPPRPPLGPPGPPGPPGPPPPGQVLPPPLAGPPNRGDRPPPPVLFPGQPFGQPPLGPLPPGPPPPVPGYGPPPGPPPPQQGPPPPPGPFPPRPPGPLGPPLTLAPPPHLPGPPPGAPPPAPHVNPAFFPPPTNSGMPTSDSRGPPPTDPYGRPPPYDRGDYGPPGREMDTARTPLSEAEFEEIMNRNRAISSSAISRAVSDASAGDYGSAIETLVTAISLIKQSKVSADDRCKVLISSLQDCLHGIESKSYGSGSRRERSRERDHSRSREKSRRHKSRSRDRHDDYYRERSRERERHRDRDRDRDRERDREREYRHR
UniProt O14974, sequence (O14974 whole entry): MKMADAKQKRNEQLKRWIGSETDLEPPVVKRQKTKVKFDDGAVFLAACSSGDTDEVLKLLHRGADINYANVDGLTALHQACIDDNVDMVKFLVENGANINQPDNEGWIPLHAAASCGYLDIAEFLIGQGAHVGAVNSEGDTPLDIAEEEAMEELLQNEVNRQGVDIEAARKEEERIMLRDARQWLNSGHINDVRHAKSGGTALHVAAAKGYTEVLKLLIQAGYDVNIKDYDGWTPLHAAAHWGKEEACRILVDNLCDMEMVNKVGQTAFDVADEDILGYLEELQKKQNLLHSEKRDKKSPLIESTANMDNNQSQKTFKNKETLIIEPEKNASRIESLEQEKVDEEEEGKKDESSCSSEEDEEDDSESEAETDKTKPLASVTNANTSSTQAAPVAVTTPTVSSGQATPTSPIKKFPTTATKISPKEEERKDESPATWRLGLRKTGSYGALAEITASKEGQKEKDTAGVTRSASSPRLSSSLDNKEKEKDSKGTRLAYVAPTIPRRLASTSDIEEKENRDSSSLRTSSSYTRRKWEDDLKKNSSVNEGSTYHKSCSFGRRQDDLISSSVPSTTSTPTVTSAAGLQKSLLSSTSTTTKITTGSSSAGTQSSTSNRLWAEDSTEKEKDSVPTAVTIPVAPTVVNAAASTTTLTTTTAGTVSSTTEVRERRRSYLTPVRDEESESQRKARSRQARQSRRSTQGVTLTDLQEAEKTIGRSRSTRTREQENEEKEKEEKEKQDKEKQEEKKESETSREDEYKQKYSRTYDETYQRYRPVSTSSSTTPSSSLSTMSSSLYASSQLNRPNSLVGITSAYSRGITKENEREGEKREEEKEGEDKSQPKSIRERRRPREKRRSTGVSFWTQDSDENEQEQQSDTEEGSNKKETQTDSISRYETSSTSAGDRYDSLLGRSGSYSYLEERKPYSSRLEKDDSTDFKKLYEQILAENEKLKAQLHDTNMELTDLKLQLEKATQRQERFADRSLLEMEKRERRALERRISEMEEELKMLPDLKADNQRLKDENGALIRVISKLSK
UniProt P68036, sequence (P68036 whole entry): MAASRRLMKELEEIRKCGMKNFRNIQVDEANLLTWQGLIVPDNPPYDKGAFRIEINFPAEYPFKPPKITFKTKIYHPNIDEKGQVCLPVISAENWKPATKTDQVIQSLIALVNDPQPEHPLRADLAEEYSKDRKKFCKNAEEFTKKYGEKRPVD

Target | thermal stability z-score [1, 3] | thermal stability z-score ([1]; arsenate co-treatment: none) | thermal stability z-score [2]
COMMD4 (UniProt Q9H0A8) | -0.113 | -0.32 | -0.322
FAM98A (UniProt Q8NCA5) | -0.444 | -0.673 | -1.6
PRPSAP1 (UniProt Q14558) | 0.0495 | -0.517 | -0.858
ARIH1 (UniProt Q9Y4X5) | -0.0195 | -0.0439 | -0.568
RPL6 (UniProt Q02878) | 0.349 | 0.0467 | -0.92
ACO2 (UniProt Q99798) | -0.488 | -0.402 | -1.08
TIPRL (UniProt O75663) | -0.215 | -0.0559 | 0.122
CPSF6 (UniProt Q16630) | 0.848 | 1.21 | 0.452
GFM2 (UniProt Q969S9) | 0.216 | 0.105 | 0.226
PAP1 (UniProt Q06141) | -0.00124 | -0.19 | -0.156
SIL1 (UniProt Q9H173) | -3.15 | -2.4 | 1.44
LIFR (UniProt P42702) | -1.35 | -0.675 | -0.287
MEPCE (UniProt Q7L2J0) | -0.372 | 0.65 | 1.22
RQCD1 (UniProt Q92600) | -0.57 | -0.143 | 0.74
DARS2 (UniProt Q6PI48) | -0.726 | -0.586 | -1.93
SARS2 (UniProt Q9NP81) | -0.781 | -0.828 | -0.442
COG3 (UniProt Q96JB2) | 1.88 | 2.29 | 2.95
UBE2L3 (UniProt P68036) | 0.00366 | -0.189 | -0.555

Target | thermal stability z-score [1, 3] | thermal stability z-score ([1]; arsenate co-treatment: none) | thermal stability z-score [2]
HSPH1 (UniProt Q92598) | -0.0648 | -0.0435 | 0.196
MYO10 (UniProt Q9HD67) | 0.223 | 0.44 | 0.432
RHOB (UniProt P62745) | 0.0865 | 0.065 | -0.245
TUFM (UniProt P49411) | -2.05 | -1.11 | -1.29
MRM3 (UniProt Q9HC36) | -0.128 | -0.165 | -0.218
HMMR (UniProt O75330) | -0.103 | 0.233 | 0.594
POMK (UniProt Q9H5K3) | 0.213 | -0.243 | -0.285
POLR1E (UniProt Q9GZS1) | 0.144 | 0.0221 | -0.0491
KBTBD6 (UniProt Q86V97) | -0.502 | 0.182 | -1.11
LDHA (UniProt P00338) | 0.685 | 0.577 | -0.436
PPP1R12A (UniProt O14974) | 1.32 | 0.52 | 0.979
NFU1 (UniProt Q9UMS0) | 0.559 | 0.402 | 0.227
TMEM87B (UniProt Q96K49) | -0.402 | 0.56 | -0.0195
PIK3R3 (UniProt Q92569) | 0.191 | -0.186 | 0.0593
NABP2 (UniProt Q9BQ15) | -0.423 | -0.174 | -0.112
IL6ST (UniProt P40189) | -1.74 | -1 | -1.84
TMED10 (UniProt P49755) | -1.53 | -1.03 | 0.275
